We go through 27 compounds from patent US20230159489A1, “PHD INHIBITOR COMPOUNDS, COMPOSITIONS, AND USE” (Akebia Therapeutics, Inc., priority 2020, published 2023).

Experiment [1] has as its target T1, full-length human PHD1 (Homo sapiens, UniProt Q96KS0).
T1 construct: FLAG (N); purchased Active Motif 81064; host or cells: baculovirus expression system
The experiment can be described thus: TR-FRET assay, enzymatic IC50 against PHD1. Further: 15 nM PHD1. The class given is biochemical. From the text:
PHD1 was expressed in a baculovirus expression system as the full-length protein (NCBI accession number NP_542770.2) with an N-terminal FLAG tag (molecular weight 44.9 kDa).

Experiment [2] has as its target T2, full-length human PHD3 (Homo sapiens, UniProt Q9H6Z9).
T2 construct: 6-His (N); purchased Active Motif 81033; host or cells: E. coli
The experiment can be described thus: TR-FRET assay, enzymatic IC50 against PHD3. Further: 35 nM PHD3. The class given is biochemical. From the text: Recombinant human PHD3 protein (molecular weight 31.1 kDa) was purchased from Active Motif (Carlsbad, Calif., USA). It was expressed in E. coli as the full-length protein (NCBI accession number NP_071356.1) with an N-terminal 6-His tag (catalog #81033, Lot #24417001).
For orientation: TR-FRET usually uses a lanthanide donor and a delayed reading to cut background.

For experiment [3], the target named is full-length human PHD2 (Homo sapiens, UniProt Q9GZT9). In words: TR-FRET assay, enzymatic IC50 against PHD2.
Sequence of full-length human PHD2 (Q9GZT9 whole entry): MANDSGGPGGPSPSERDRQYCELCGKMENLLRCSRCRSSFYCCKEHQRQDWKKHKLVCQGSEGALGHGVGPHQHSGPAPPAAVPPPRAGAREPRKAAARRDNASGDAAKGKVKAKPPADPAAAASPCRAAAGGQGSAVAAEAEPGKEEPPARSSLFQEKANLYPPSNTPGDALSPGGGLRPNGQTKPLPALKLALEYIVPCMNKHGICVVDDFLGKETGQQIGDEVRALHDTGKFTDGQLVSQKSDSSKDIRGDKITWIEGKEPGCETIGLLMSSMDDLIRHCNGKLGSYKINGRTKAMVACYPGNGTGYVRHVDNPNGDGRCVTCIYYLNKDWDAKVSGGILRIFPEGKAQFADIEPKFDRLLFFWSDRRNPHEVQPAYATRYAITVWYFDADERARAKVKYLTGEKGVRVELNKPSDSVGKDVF
Description: Time-resolved fluorescence resonance energy transfer (TR-FRET) assay was utilized to determine the enzymatic half maximal inhibitory concentration (IC50) value of PHD inhibitors against the full-length human prolyl-4-hydroxylase domain (PHD) enzymes, PHD1, PHD2, and PHD3. The TR-FRET assay was developed based on the specific binding of hydroxylated HIF-1α peptide with the complex formed by VHL, EloB and EloC (VBC), to generate a fluorescent signal. Terbium (Tb)-Donor (monoclonal antibody anti-6His-Tb-cryptate Gold) and D2-acceptor (streptavidin [SA]-D2) of TR-FRET are linked to the VBC complex and to HIF-1α peptide, respectively. The VBC complex binds specifically to the HIF-1α peptide when it is hydroxylated, allowing energy transfer from TR-FRET donor to acceptor (FIG. 1). […] The plates were incubated for 30 minutes at room temperature without rotation. […] TR-FRET assays were performed in triplicate at each concentration of compound and the assays were repeated independently three times.

T1 sequence (Q96KS0 whole entry): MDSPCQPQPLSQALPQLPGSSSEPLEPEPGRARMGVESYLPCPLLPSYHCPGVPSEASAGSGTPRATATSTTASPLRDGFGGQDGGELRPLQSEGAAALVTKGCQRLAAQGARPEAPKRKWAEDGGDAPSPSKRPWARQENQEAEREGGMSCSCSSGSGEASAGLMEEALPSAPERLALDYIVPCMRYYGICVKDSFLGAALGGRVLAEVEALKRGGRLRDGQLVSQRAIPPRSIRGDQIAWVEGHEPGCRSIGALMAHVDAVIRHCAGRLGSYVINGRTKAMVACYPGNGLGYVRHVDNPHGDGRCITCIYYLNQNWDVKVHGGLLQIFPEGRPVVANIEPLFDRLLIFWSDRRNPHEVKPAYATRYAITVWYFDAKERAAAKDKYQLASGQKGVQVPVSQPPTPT
T2 sequence (Q9H6Z9 whole entry): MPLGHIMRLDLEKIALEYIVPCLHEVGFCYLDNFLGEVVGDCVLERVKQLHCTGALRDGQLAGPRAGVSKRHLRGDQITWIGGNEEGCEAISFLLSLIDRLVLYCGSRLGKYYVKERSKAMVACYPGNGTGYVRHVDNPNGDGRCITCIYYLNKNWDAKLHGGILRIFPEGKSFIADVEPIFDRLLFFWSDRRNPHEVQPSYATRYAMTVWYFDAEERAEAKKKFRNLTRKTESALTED

`Cc1nn(-c2ccc(S(C)(=O)=O)cn2)c(O)c1-c1ccc(Cl)cc1` [Compound 1, 4-(4-chlorophenyl)-3-methyl-1-(5-(methylsulfonyl)pyridin-2-yl)-1H-pyrazol-5-ol]: the IC50 (as a rule, the concentration at which inhibition is half-maximal) is less than 100 nM in experiment [1], 100 to 1000 nM in experiment [2] and less than 100 nM in experiment [3].
Take `Cc1cc(C#N)ccc1-c1c(C)nn(-c2ccc(S(C)(=O)=O)cn2)c1O` [Compound 2, 4-(5-hydroxy-3-methyl-1-(5-(methylsulfonyl)pyridin-2-yl)-1H-pyrazol-4-yl)-3-methylbenzonitrile]: the IC50 in experiment [1], in experiment [2] and in experiment [3] was less than 100 nM in each case.
Regarding `Cc1nn(-c2ccc(S(C)(=O)=O)cn2)c(O)c1-c1ccc(C#N)cc1` [Compound 3, 4-(5-hydroxy-3-methyl-1-(5-(methylsulfonyl)pyridin-2-yl)-1H-pyrazol-4-yl)benzonitrile], the 50% inhibitory concentration (IC50) in experiment [1], in experiment [2] and in experiment [3] was less than 100 nM in each case.
In the case of `CCc1nn(-c2ccc(S(C)(=O)=O)cn2)c(O)c1-c1ccc(C#N)cc1` [Compound 4, 4-(3-ethyl-5-hydroxy-1-(5-(methylsulfonyl)pyridin-2-yl)-1H-pyrazol-4-yl)benzonitrile], the 50% inhibitory concentration (IC50) in experiment [1] is less than 100 nM; in experiment [2], 1000 to 10000 nM; in experiment [3] it was less than 100 nM.
As for `CS(=O)(=O)c1ccc(-n2nc(C3CC3)c(-c3ccc(C#N)cc3)c2O)nc1` [Compound 5, 4-(3-cyclopropyl-5-hydroxy-1-(5-(methylsulfonyl)pyridin-2-yl)-1H-pyrazol-4-yl) benzonitrile], the concentration for half-maximal inhibition (IC50) was 100 to 1000 nM in experiment [1], greater than 10000 nM in experiment [2] and 1000 to 10000 nM in experiment [3].
In the case of `Cc1nn(-c2ccc(NS(C)(=O)=O)cn2)c(O)c1-c1ccc(C#N)cc1` [Compound 6, N-(6-(4-(4-cyanophenyl)-5-hydroxy-3-methyl-1H-pyrazol-1-yl)pyridin-3-yl) methanesulfonamide], the 50% inhibitory concentration (IC50) in experiment [1], in experiment [2] and in experiment [3] was less than 100 nM throughout.
Regarding `Cc1nn(-c2ccc(N3CCCC3=O)cn2)c(O)c1-c1ccc(C#N)cc1` [Compound 7, 4-(5-hydroxy-3-methyl-1-(5-(2-oxopyrrolidin-1-yl)pyridin-2-yl)-1H-pyrazol-4-yl)benzonitrile], the half-maximal inhibitory concentration (IC50) was less than 100 nM in experiment [1], 100 to 1000 nM in experiment [2] and less than 100 nM in experiment [3].
In the case of `Cc1nn(-c2ccc(S(=O)(=O)c3ccccc3)cn2)c(O)c1-c1ccc(C#N)cc1` [Compound 8, 4-(5-hydroxy-3-methyl-1-(5-(phenylsulfonyl)pyridin-2-yl)-1H-pyrazol-4-yl)benzonitrile], the IC50 in experiment [1] was less than 100 nM; in experiment [2] it was 100 to 1000 nM; in experiment [3], less than 100 nM.
For `CCC(=O)Nc1ccc(-n2nc(C)c(-c3ccc(C#N)cc3)c2O)nc1` [Compound 9, N-(6-(4-(4-cyanophenyl)-5-hydroxy-3-methyl-1H-pyrazol-1-yl)pyridin-3-yl)propionamide], the IC50 is less than 100 nM in experiment [1], 100 to 1000 nM in experiment [2] and less than 100 nM in experiment [3].
Regarding `Cc1nn(-c2ccc(C(=O)C(C)C)cn2)c(O)c1-c1ccc(C#N)cc1` [Compound 10, 4-(5-hydroxy-1-(5-isobutyrylpyridin-2-yl)-3-methyl-1H-pyrazol-4-yl)benzonitrile], the IC50 was less than 100 nM in experiment [1], 100 to 1000 nM in experiment [2] and less than 100 nM in experiment [3].
Consider `Cc1nn(-c2ccc(S(N)(=O)=O)cn2)c(O)c1-c1ccc(C#N)cc1` [Compound 11, 6-(4-(4-cyanophenyl)-5-hydroxy-3-methyl-1H-pyrazol-1-yl)pyridine-3-sulfonamide], for which the IC50 in experiment [1], in experiment [2] and in experiment [3] was less than 100 nM in each case.
Consider `Cc1nn(-c2ccc([S+](C)[O-])cn2)c(O)c1-c1ccc(C#N)cc1` (stereo not drawn) [Compound 12, 4-(5-hydroxy-3-methyl-1-(5-(methylsulfinyl)pyridin-2-yl)-1H-pyrazol-4-yl)benzonitrile], for which the IC50 in experiment [1], in experiment [2] and in experiment [3] was less than 100 nM in each case.
With `Cc1nn(-c2ccc(S(C)(=N)=O)cn2)c(O)c1-c1ccc(C#N)cc1` (stereo not drawn) [Compound 13, 4-(5-hydroxy-3-methyl-1-(5-(S-methylsulfonimidoyl)pyridin-2-yl)-1H-pyrazol-4-yl)benzonitrile], the half-maximal inhibitory concentration (IC50) in experiment [1] is less than 100 nM; in experiment [2], 100 to 1000 nM; in experiment [3], less than 100 nM.
With `CN=S(C)(=O)c1ccc(-n2nc(C)c(-c3ccc(C#N)cc3)c2O)nc1` (stereo not drawn) [Compound 15, 4-(1-(5-(N,S-dimethylsulfonimidoyl)pyridin-2-yl)-5-hydroxy-3-methyl-1H-pyrazol-4-yl)benzonitrile], the IC50 in experiment [1], in experiment [2] and in experiment [3] was less than 100 nM each time.
Regarding `Cc1nn(-c2ccc(C(=O)NS(C)(=O)=O)cn2)c(O)c1-c1ccc(C#N)cc1` [Compound 27, 6-(4-(4-cyanophenyl)-5-hydroxy-3-methyl-1H-pyrazol-1-yl)-N-(methylsulfonyl)nicotinamide], the half-maximal inhibitory concentration (IC50) in experiment [1], in experiment [2] and in experiment [3] was less than 100 nM in each case.
Consider `Cc1nn(-c2ccc(S(=N)(=O)C3CCC3)cn2)c(O)c1-c1ccc(C#N)cc1` (stereo not drawn) [Compound 34, 4-(1-(5-(cyclobutanesulfonimidoyl)pyridin-2-yl)-5-hydroxy-3-methyl-1H-pyrazol-4-yl)benzonitrile], for which the half-inhibitory concentration (IC50) in experiment [1], in experiment [2] and in experiment [3] was less than 100 nM throughout.
Consider `Cc1nn(-c2ccc(S(=N)(=O)C3CCCC3)cn2)c(O)c1-c1ccc(C#N)cc1` (stereo not drawn) [Compound 35, 4-(1-(5-(cyclopentanesulfonimidoyl)pyridin-2-yl)-5-hydroxy-3-methyl-1H-pyrazol-4-yl)benzonitrile], for which the half-inhibitory concentration (IC50) in experiment [1], in experiment [2] and in experiment [3] was less than 100 nM throughout.
Take `Cc1cc(-n2nc(C)c(-c3ccc(C#N)cc3)c2O)ncc1P(C)(C)=O` [Compound 36, 4-(1-(5-(dimethylphosphoryl)-4-methylpyridin-2-yl)-5-hydroxy-3-methyl-1H-pyrazol-4-yl)benzonitrile]: the figures for the concentration for half-maximal inhibition (IC50) in experiment [1], in experiment [2] and in experiment [3] were less than 100 nM, 100 to 1000 nM and less than 100 nM, respectively.
On to `Cc1nn(-c2ccc(S(C)(=O)=O)cn2)c(O)c1-c1ccc(C#N)cn1` [Compound 44, 6-(5-hydroxy-3-methyl-1-(5-(methylsulfonyl)pyridin-2-yl)-1H-pyrazol-4-yl)nicotinonitrile], for which the figures for the concentration for half-maximal inhibition (IC50) in experiment [1], in experiment [2] and in experiment [3] were 100 to 1000 nM, 1000 to 10000 nM and 100 to 1000 nM, respectively.
Turning to `Cc1nn(-c2ccc(NS(=O)(=O)CC(=O)O)cn2)c(O)c1-c1ccc(C#N)cc1` [Compound 55, 2-(N-(6-(4-(4-cyanophenyl)-5-hydroxy-3-methyl-1H-pyrazol-1-yl)pyridin-3-yl)sulfamoyl)acetic acid], the concentration for half-maximal inhibition (IC50) in experiment [1], in experiment [2] and in experiment [3] was less than 100 nM throughout.
With `Cc1nn(-c2ccc([S@@](=N)(=O)C3CC3)cn2)c(O)c1-c1ccc(C#N)cc1` [Compound 56, (S)-4-(1-(5-(cyclopropanesulfonimidoyl)pyridin-2-yl)-5-hydroxy-3-methyl-1H-pyrazol-4-yl)benzonitrile], the half-maximal inhibitory concentration (IC50) in experiment [1], in experiment [2] and in experiment [3] was less than 100 nM each time.
Regarding `Cc1nn(-c2ccc([S@](=N)(=O)C3CC3)cn2)c(O)c1-c1ccc(Cl)cc1` [Compound 66, (R)-(6-(4-(4-chlorophenyl)-5-hydroxy-3-methyl-1H-pyrazol-1-yl)pyridin-3-yl)(cyclopropyl)(imino)-λ^6-sulfanone], the half-inhibitory concentration (IC50) in experiment [1] and in experiment [3] was less than 100 nM throughout.
Regarding `Cc1nn(-c2ccc(NS(C)(=O)=O)cn2)c(O)c1-c1ccc(Cl)cc1` [Compound 67, N-(6-(4-(4-chlorophenyl)-5-hydroxy-3-methyl-1H-pyrazol-1-yl)pyridin-3-yl)methanesulfonamide], the IC50 in experiment [1] and in experiment [3] was less than 100 nM in each case.
For the compound `Cc1cc(-n2nc(C)c(-c3ccc(C#N)cc3)c2O)ncc1[S@@](=N)(=O)C1CC1` [Compound 68, (S)-4-(1-(5-(cyclopropanesulfonimidoyl)-4-methylpyridin-2-yl)-5-hydroxy-3-methyl-1H-pyrazol-4-yl)benzonitrile], the 50% inhibitory concentration (IC50) in experiment [1] and in experiment [3] was less than 100 nM throughout.
Consider `Cc1cc(-n2nc(C)c(-c3ccc(C#N)cc3)c2O)ncc1[S@](=N)(=O)C1CC1` [Compound 69, (R)-4-(1-(5-(cyclopropanesulfonimidoyl)-4-methylpyridin-2-yl)-5-hydroxy-3-methyl-1H-pyrazol-4-yl)benzonitrile], for which the IC50 in experiment [1] and in experiment [3] was less than 100 nM each time.
With `Cc1cc(-n2nc(C)c(-c3ccc(C#N)cc3)c2O)ncc1S(=O)(=O)Nc1ccccc1` [Compound 70, 6-(4-(4-cyanophenyl)-5-hydroxy-3-methyl-1H-pyrazol-1-yl)-4-methyl-N-phenylpyridine-3-sulfonamide], the IC50 in experiment [1] is less than 100 nM; in experiment [3], 100 to 1000 nM.
With `Cc1cc(-n2nc(C)c(-c3ccc(C#N)cc3)c2O)ncc1S(=O)(=O)NC1CC1` [Compound 71, 6-(4-(4-cyanophenyl)-5-hydroxy-3-methyl-1H-pyrazol-1-yl)-N-cyclopropyl-4-methylpyridine-3-sulfonamide], the IC50 in experiment [1] and in experiment [3] was less than 100 nM in each case.
